From US4803157A, “Hydrolyzable fluorescent substrates for phosphatases and analytical use thereof” (Eastman Kodak Company, priority 1986, dated 1989)
Where a name gives a salt, the structure may show the parent alone.

Legend:
[1] = system: calf intestine alkaline phosphatase; assay: Kinetic study of alkaline phosphatase with substrate (double reciprocal plot); assay type: biochemical; conditions: 540 nm, substrate 0.1-10 mmolar, enzyme 0.01 I.U./ml, sodium carbonate 100 mmolar, pH 10
Excerpt: The magnesium salt substrate prepared in Example 1 was used to determine reaction rates and kinetic parameters for alkaline phosphatase at 540 nm. The study was done by using the substrate (concentration range 0.1 mmolar to 10 mmolar), calf intestine alkaline phosphatase (0.01 I.U./ml), sodium carbonate (100 mmolar, pH 10), magnesium chloride (1 mmolar) and zinc perchlorate (1 mmolar). From the data obtained, a double reciprocal plot was drawn.

beef liver ALP = assay: Solution assay for alkaline phosphatase (fluorescence); assay type: biochemical; conditions: excitation 535 nm, emission 580 nm
Procedure: A solution was prepared using the substrate of Example 1 (10^-5 molar), magnesium acetate ([…]) and TRIS buffer (0.1 molar, pH 8.5). One milliliter of this solution was placed in each of two test cells. To one cell was added beef liver ALP (100 μl, 10^-5 molar). No ALP was placed in the second cell.
The relative fluorescence of the solution in the test cell containing the ALP-hydrolyzed substrate was measured at an excitation of 535 nm and an emission of 580 nm. […]

Row | SMILES | rate of reaction (Vmax) [1] | Km ([1]; MgCl2 1 mmolar, zinc perchlorate 1 mmolar, read-out: Michaelis constant (Km)) | relative fluorescence of unhydrolyzed substrate (beef liver ALP; no ALP added) | relative fluorescence of ALP-hydrolyzed substrate (beef liver ALP; substrate 10^-5 molar, TRIS 0.1 molar pH 8.5, with beef liver ALP)
1 | O=C1C=Cc2ccc(OP(=O)(O)O)c3cccc1c23 [phenalenone-6-phosphate magnesium salt] | 0.029 absorbance (A) units/minute | 1400 µM |  | 
2 | O=C1C=Cc2ccc(OP(=O)(O)O)c3cccc1c23 [substrate of Example 1, PHENALENONE-6-PHOSPHATE] |  |  | Minimal fluorescence | rapid generation of fluorescence
